Assay results reported in paper PMC10933344, “A lncRNA Dleu2-encoded peptide relieves autoimmunity by facilitating Smad3-mediated Treg induction” (EMBO Reports, 2024).

How the values were obtained:
[1] = test system: TGF-β/Smad signaling in CD4+ T cells; assay: qPCR analysis of TGF-β/Smad signaling downstream genes; type: cell-based, mouse; details: 20 μM 17aa, 24 h
Method: (§1) Figure 4 Dleu2-17aa modulates TGF-β/Smad signaling to promote Foxp3 transcription. (A) qPCR analysis of TGF-β/Smad signaling downstream genes in CD4^+ T cells treated with Dleu2-17aa or scrPEP for 24 h and challenged with TGF-β to activate the signaling pathway (n = 3). (B) NIH/3T3 cells were transfected with a Foxp3 CNS1-luciferase reporter plasmid and a Smad3 expression vector. Subsequently, the cells were treated with either Dleu2-17aa or scrPEP. Luciferase activity fold induction was quantified (n = 3). (C) Foxp3 CNS1 region enrichment by Smad3 treated with or without Dleu2-17aa for 24 h in CD4^+ T cells was assessed by ChIP-qPCR (n = 3). (D) EMSA was performed in NIH/3T3 cell nuclear lysates using a 10 μM biotin-labeled Foxp3 probe and treated with Dleu2-17aa or scrPEP (3, 10, 30 μM). There were band shifts to a higher molecular weight and an increase in band intensity by Dleu2-17aa treatment. Data information: n indicates biological replicate. Error bars are mean ± SEM; **P < 0.01, and ***P < 0.001. Statistical analysis was by two-tailed Student’s t-test for (A–C). Source data are available online for this figure.
Total RNA from cells or tissues was extracted using TRIzol reagent (Invitrogen) and then quantified. 1 μg of total RNA was reverse transcribed into cDNA with HiScript II Q RT SuperMix for qPCR (+gDNA Wiper) (Vazyme, China, R223-01). The cDNA samples were run in triplicate at 200 ng/well. Quantitative real-time PCR (qPCR) was performed using ChamQ Universal SYBR qPCR Master Mix (Vazyme, China) on an Applied Biosystems 7500 Fast Real-Time PCR System or a ViiA 7 Real-Time PCR System (Applied Biosystems). All gene expression results were normalized to the expression of the housekeeping gene GAPDH. Primer sequences are listed as follows: Dleu2 forward, 5′-[…]-3 and reverse, 5′-[…]-3; Foxp3 forward, 5′-CCCATCCCCAGGAGTCTTG-3′ and reverse, 5′-[…]-3′; Ctla2a forward, 5′-[…]-3′ and reverse, 5′-[…]-3′; Ccr8 forward, 5′-[…]-3′ and reverse, 5′-[…]-3′; Tgf-β forward: 5′-[…]-3′ and reverse, 5′-[…]-3′; Ctla4 forward, 5′-[…]-3′ and reverse, 5′-[…]-3′; Gapdh forward, 5′-[…]-3′ and reverse, 5′-GGGGTCGTTGATGGCAAC-3′.

[2] = test system: Foxp3 CNS1-luciferase reporter / Smad3; assay: Foxp3 CNS1-luciferase reporter assay in NIH/3T3 cells; type: cell-based, mouse; details: 20 μM
Method: as §1
NIH/3T3 cells were seeded at 5 × 10^5 cells/well in 24-well plates and transfected with 0.2 μg/well of pGL3 Foxp3 CNS1-luciferase reporter and the internal control vector pRL-TK (Promega) at a ratio of 10:1 (reporter construct: control vector) using LipofectamineTM 2000 according to the manufacturer’s protocol; For specific groups, co-transfect with pcDNA3.1-Smad3, an empty vector served as the control. After 7 h, remove the transfection medium and replace it with fresh medium containing either 20 μM Dleu2-17aa or PBS. 24 h post-transfection, luciferase activity was measured using the Dual-Luciferase® Reporter Assay System (Promega) according to the manufacturer’s protocol.

[3] = test system: Smad3 binding to Foxp3 CNS1 region; assay: EMSA, Foxp3 CNS1 probe, NIH/3T3 nuclear lysates; details: 3, 10, 30 μM; NIH/3T3 nuclear extracts
Method: EMSA was performed using the LightShift Chemiluminescent EMSA kit (Thermo Fisher Scientific, #20148). Briefly, Nuclear extracts of NIH/3T3 cells were prepared using theNE-PER Nuclear and Cytoplasmic Extraction Kit (Thermo Fisher Scientific, #78835). Complementary DNA oligonucleotide Foxp3 CNS1 region probes were 5′-[…]-3′ and 5′-[…]-3′, AP-1 probes were 5′-[…]-3′ and 5′-[…]-3′, PAI-1 probes were 5′-[…]-3′ and 5′-[…]-3′. Probes were end-labeled with biotin and annealed. The reaction mix consists of labeled oligonucleotides, 10 µg of the nuclear extracts, and 3, 10, 30 μM Dleu2-17aa or scrPEP. The binding reaction was incubated at room temperature for 30 min, followed by loading onto a 6% native DNA polyacrylamide gel. The gel was prerun and run with […] Tris-Borate-EDTA and processed according to the manufacturer’s instructions.

Sequence: ARGPARRMRGGRRRRLR [scrPEP, scrambled control peptide of Dleu2-17aa]
- Relative mRNA expression, Ccr8 ([1]; TGF-β, replicate 1): 1.77
- Relative mRNA expression, Clta4 ([1]; TGF-β, replicate 1): 4.488
- Relative mRNA expression, Ctla2a ([1]; TGF-β, replicate 1): 7.981
- Relative mRNA expression, Foxp3 ([1]; TGF-β, replicate 1): 19.2862
- Relative mRNA expression, Tgf-β ([1]; TGF-β, replicate 1): 0.9918
- Relative mRNA expression, Ccr8 ([1]; TGF-β, replicate 2): 1.871
- Relative mRNA expression, Clta4 ([1]; TGF-β, replicate 2): 3.767
- Relative mRNA expression, Ctla2a ([1]; TGF-β, replicate 2): 6.697
- Relative mRNA expression, Foxp3 ([1]; TGF-β, replicate 2): 27.373
- Relative mRNA expression, Tgf-β ([1]; TGF-β, replicate 2): 0.9024
- Relative mRNA expression, Ccr8 ([1]; TGF-β, replicate 3): 1.768
- Relative mRNA expression, Clta4 ([1]; TGF-β, replicate 3): 4.326
- Relative mRNA expression, Ctla2a ([1]; TGF-β, replicate 3): 4.254
- Relative mRNA expression, Foxp3 ([1]; TGF-β, replicate 3): 26.607
- Relative mRNA expression, Tgf-β ([1]; TGF-β, replicate 3): 1.365
- Relative mRNA expression, Ccr8 ([1]; no TGF-β, replicate 1): 1
- Relative mRNA expression, Clta4 ([1]; no TGF-β, replicate 1): 1
- Relative mRNA expression, Ctla2a ([1]; no TGF-β, replicate 1): 1
- Relative mRNA expression, Foxp3 ([1]; no TGF-β, replicate 1): 1
- Relative mRNA expression, Tgf-β ([1]; no TGF-β, replicate 1): 1
- Relative mRNA expression, Ccr8 ([1]; no TGF-β, replicate 2): 0.871
- Relative mRNA expression, Clta4 ([1]; no TGF-β, replicate 2): 0.794
- Relative mRNA expression, Ctla2a ([1]; no TGF-β, replicate 2): 0.868
- Relative mRNA expression, Foxp3 ([1]; no TGF-β, replicate 2): 1
- Relative mRNA expression, Tgf-β ([1]; no TGF-β, replicate 2): 0.7198
- Relative mRNA expression, Ccr8 ([1]; no TGF-β, replicate 3): 1
- Relative mRNA expression, Clta4 ([1]; no TGF-β, replicate 3): 0.856
- Relative mRNA expression, Ctla2a ([1]; no TGF-β, replicate 3): 1
- Relative mRNA expression, Foxp3 ([1]; no TGF-β, replicate 3): 0.967
- Relative mRNA expression, Tgf-β ([1]; no TGF-β, replicate 3): 0.8563
- Relative luciferase activity ([2]; with Smad3 vector, replicate 1): 2.57
- Relative luciferase activity ([2]; with Smad3 vector, replicate 2): 2.653
- Relative luciferase activity ([2]; with Smad3 vector, replicate 3): 2.615
- Relative luciferase activity ([2]; without Smad3 vector, replicate 1): 0.9636
- Relative luciferase activity ([2]; without Smad3 vector, replicate 2): 0.91
- Relative luciferase activity ([2]; without Smad3 vector, replicate 3): 1.069
- Smad3 binding to the CNS1 region of Foxp3 (EMSA) [3]: did not
